pIC50: −log10 of the molar value. Several values for one entry are separate records, joined by “and”; a condition that tells them apart may be missing. Equal values may be shown once.
These compounds were tested on P. falciparum 3D7 growth, pLDH absorbance (assay: blood-stage malaria parasite growth potency – strain 3D7, dose response (AID 2305)).

SMILES	pIC50
N#Cc1ccc(NC(=O)NC2CCN(CCCCCNC(=O)/C=C/c3ccc(Cl)c(Cl)c3)CC2)cc1	6.10
CC[C@H](C)[C@H](NC(=O)[C@H](CC1CCCCC1)[C@H](CC)N(O)C=O)C(=O)Nc1ccccn1	6.74
Oc1ccc2nc(Nc3ccccc3)nc(NCCc3ccccc3)c2c1	6.82
Cc1cc(=O)[nH]c(-n2nc(C)cc2NC(=O)C2(c3ccc(Cl)cc3)CCCC2)n1	6.54
Cn1c(Sc2ncnc3sccc23)nc2ccccc21	6.72
Cc1ccc(NC(=O)c2ccc3nccnc3c2)cc1OC1CCN(Cc2ccc(F)cc2)CC1	6.00
COc1ccc(C(=O)Nc2ccc(-c3nc4ccc(C)cc4[nH]3)cc2)cc1OC	6.12
CCOC(=O)c1c(SCc2cccc(F)c2F)[nH]c2ccccc2c1=O	6.19
Cn1ccc(-c2cccc(Nc3ccnc4cc(-c5nccs5)ccc34)c2)n1	6.39
Fc1ccc2[nH]cc(CCNCc3ccc(-c4cccc(-c5nc6ccccc6[nH]5)c4)cc3)c2c1	6.77
O=C(NC1CCC(CCN2Cc3ccc(Br)cc3C2)CC1)c1cccc(-c2cccnc2)c1 (configuration not stated)	6.03
O=C(Nc1ccc2c(c1)CCC2)c1cccc(N2CCN(c3ccncc3)CC2)c1	6.01
c1cncc(NCc2ccc(-c3cc4ccncc4cc3OC3CCNCC3)s2)c1	6.01
N#CCCN1CCN(Cc2cccc(-c3ccc(-c4nc5ccc(F)cc5[nH]4)cc3)c2)CC1	6.22
COC(=O)c1cccc(CNCc2ccc(-c3ccc(-c4nc5c(C)cccc5[nH]4)cc3)cc2)c1	6.55
CN1CCC(Oc2ccc(CN3CC[C@H](NC(=O)c4cc(F)cc(F)c4)C3)c3ccccc23)C1 (some centres not stated)	6.08
COc1ccccc1N(C)CCNc1cc(C)nc(Nc2ccc(C)cc2)n1	5.80
Nc1nc(N)c2c(ccc3c2ccn3CC2CC2)n1	6.68
c1ccc2ncc(CNCCCCCCCCNCc3cnc4ccccc4c3)cc2c1	6.07
COc1ccc(CNCc2cccc(-c3ccc(-c4nc5ccc(C(F)(F)F)cc5[nH]4)cc3)c2)cc1	6.89
Cn1ccnc1-c1nc2ccccn2c1NCC(=O)Nc1ccccc1N1CCCCC1	6.01
COc1cc2c(cc1C(F)(F)F)N(C(=O)Nc1cc(F)cc(-c3cncnc3)c1)CC2	6.30
O=C(NCc1ccco1)c1ccc(S(=O)(=O)c2ccc(Cl)cc2)cc1	6.35
CN1CCCCC1CCc1cc(C(=O)Nc2ccc(-c3ccc(O)cc3)cc2)ccc1O (configuration not stated)	5.95
CC(C)(C)c1ccc(CN2CCCCC(NC(=O)c3cc(-c4cccc(F)c4)cs3)C2)cc1 (configuration not stated)	6.11
COc1ccc(NC(=O)C2CCN(CCCCCNC(=O)/C=C/c3ccc(Cl)c(Cl)c3)CC2)cc1	6.08

SMILES	pIC50
COc1ccc(OCC(=O)Nc2nc(-c3ccc(OC)cc3)c(C)s2)cc1	5.71
c1ccc(Oc2ccc(Nc3ccnc4ccc(-c5ccccn5)cc34)cc2)cc1	5.96
CCCN1CCN(Cc2ccc(-c3ccc(-c4nc5ccccc5[nH]4)s3)cc2)CC1	6.21
COc1ccc2ccccc2c1C=NNc1ccnc2ccc(F)cc12	5.95
CCC(C)(C)C1CCc2nc(N)nc(N)c2C1 (configuration not stated)	8.00
Cc1ccc(NC(=S)NC2CCN(CCCCCNC(=O)/C=C/c3ccc(Cl)c(Cl)c3)CC2)cc1Cl	6.00
COc1cc2nc(Nc3ccc4c(c3)OCCO4)nc(N)c2cc1OC	6.33
COc1cc(F)c2ncc(Cl)c([C@@H](O)CN3CCC(NCc4cc5c(cn4)OCCO5)CC3)c2c1	7.00
Cc1ccc(NC(=O)c2cccc(CN3CCCN(Cc4cccc(O)c4)CC3)c2)cc1C	5.98
CN(C)c1ccc2c(c1)Sc1cc(N(C)C)ccc1N2C(=O)CCCC(=O)O	6.10
O=S(=O)(c1ccc(OCc2ccc(Cl)cc2)cc1)c1cc2c(cc1O)CCN(C1CCC1)CC2	6.03
CCCNS(=O)(=O)c1ccc(NC(=O)C(C)Oc2ccc([N+](=O)[O-])cc2)cc1 (configuration not stated)	6.14
CN(C)Cc1cc2c(O)c(Cc3ccccc3)ccc2o1	5.96
Cc1cccc2[nH]c(-c3cccc(-c4ccc(NC(=O)Nc5cccc(C#N)c5)cc4)c3)nc12	6.72
COc1cc(C(F)(F)F)c2cc(CNCCCNc3nc4ccccc4[nH]3)[nH]c2c1	6.51
NCCCN(Cc1ccc(Cl)c(Cl)c1)C(=O)Nc1ccc(Cl)c(Cl)c1	6.05
CCC(CC)N1CCN(CC(=O)Nc2ccc([N+](=O)[O-])cc2C(=O)Nc2cccc(OC)c2)CC1	6.06
O=C(Nc1cccc(-c2nn3ccccc3c2-c2ccnc(Nc3ccc(C(=O)N4CCOCC4)cc3)n2)c1)c1c(F)cccc1F	6.42
Cc1cc(NN=Cc2ccccc2F)c2cc(F)ccc2n1	6.52
N#Cc1ccc(NC(=Nc2ccccc2Br)N(C2CCCCC2)C2CCCCC2)c(O)c1	6.11
O=C(/C=C/c1ccc(Cl)c(Cl)c1)NCCCCCN1CCCC(C(=O)Nc2ccc(Cl)cc2)C1 (configuration not stated)	6.07
CN(C)Cc1cccc(-c2ccc(Nc3nccc(NCC(O)c4ccccc4)n3)cc2)c1 (configuration not stated)	6.85
CN1CCN(Cc2nc(-c3ccc4c(Nc5ccc(Oc6ccccc6)cc5)ccnc4c3)cs2)CC1	6.51
CN1CCN(c2ccnc3ccc(NC(=O)Cc4cccc(Cl)c4Cl)cc23)CC1	6.10
CCn1ncc(Cl)c1CN(C)S(=O)(=O)c1ccc(Br)cc1	5.99
Cc1cccc2[nH]c(-c3ccc(-c4ccc(CN5CCN(CCO)CC5)cc4)s3)nc12	6.15

SMILES	pIC50
CCCCC(CC)CN1C(=O)C(c2ccccc2)(c2ccccc2)N=C1N (configuration not stated)	6.72
CC1CCCCC1N(C)C1CCN(CCCNC(=O)C=Cc2cccc(C(F)(F)F)c2)CC1 (configuration not stated)	6.11
COc1ccc2nc(C)cc(NN=Cc3cc(OC)c(OC)cc3OC)c2c1	6.13
CCOc1ccc(CNCCCCCCNCc2ccc(OCC)c3ccccc23)c2ccccc12	6.35
Cc1ccc2c(NN=Cc3ccc(N(C)C)cc3)cc(C)nc2c1	6.06
c1ccc(OCCOc2ccc(Nc3ccnc4cc5ccccc5cc34)cc2)cc1	6.60
O=C(N[C@@H](Cc1ccccc1)C(=O)O)c1cc(-c2ccc(F)cc2)no1 (tested in a mixture with another compound)	6.10
O=C(Nc1ccc(-c2ccccc2)cc1)Nc1cccc(Cn2nc(Cl)c(N3CCCNCC3)cc2=O)c1	6.17
S=c1nc(-c2ccccc2)n2ccsc2n1	6.74
CCc1cc(Br)c2c(c1)C(NCCCNc1cc(=O)c3ccccc3[nH]1)CCN2 (configuration not stated)	6.07
O=C(/C=C/c1ccc(Cl)c(Cl)c1)N1CCC(C(O)CN2CCC(c3c[nH]c4ccccc34)CC2)CC1 (configuration not stated)	6.07
O=C(NC1CCCc2ccccc21)[C@@H]1CCCN1C(=O)c1ccc(O)c(-c2ccc(Cl)c(Cl)c2)c1 (some centres not stated)	6.68
NC(N)=NN=CC(=O)Nc1cccc(C(F)(F)F)c1	6.00
COc1ccc(CNCc2ccc(F)cc2)cc1-c1ccc(S(=O)(=O)NCCN2CCCC2)c(C)c1	6.14
COc1cc(OC)cc(-c2nn(-c3ccc([N+](=O)[O-])cc3Cl)c(=S)n2Cc2ccco2)c1	6.08
CCOC(=O)N1CCN(CCCNc2c3ccc(Cl)cc3nc3ccc(OC)cc23)CC1	7.00
COc1ccc(CCn2c(C3CCCCC3)nc3oc4ccccc4c(=O)c3c2=O)cc1	6.02
CC(CNC(=O)[C@H]1CNCCN1C(=O)CCCc1ccccc1)c1ccccc1 (some centres not stated)	6.04
C(=N\Nc1nccc2sc(-c3ccccc3)cc12)/c1cccnc1	6.09
COc1cc(Nc2nccc(N3CCC(NC(=O)c4cc5ccccc5s4)C3)n2)cc(OC)c1OC (configuration not stated)	6.10
Nc1n[nH]c(-c2ccccc2Nc2ccnc3cc(-c4nccs4)ccc23)n1	5.95
COc1ccc(-c2ccc3c(-c4cccc(S(C)(=O)=O)c4)cnc(N)c3c2)cc1	5.88
Cc1c(CN2CCC(N3CCC(C(=O)NC4CC4)CC3)CC2)[nH]c2c(Cl)cccc12	5.92
CCOc1cc2c(cc1OCC)C(c1ccc(O)c(Cl)c1)NCC2 (configuration not stated)	6.10
Cc1ccc(Cn2c(N3CCC(C(=O)NCc4ccccn4)CC3)nc3ccccc32)cc1	6.39
CCc1nn2c(Nc3ccncc3)cc(C)nc2c1-c1ccccc1	6.70

SMILES	pIC50
O=C(Nc1ccc(N2CCCN(Cc3cccc(F)c3)CC2)cc1)c1cccs1	6.26
Cc1[nH]c(C)c(-c2ccc(Sc3ccc(Cl)cc3)cc2)c(=O)c1Br	6.85
Nc1c2ccccc2nc2cc([N+](=O)[O-])ccc12	6.06
COc1cc2nc(Cl)nc(Nc3ccncc3)c2cc1OC	5.92
CCCN(CC1CC1)c1nc(C)nc2c(-c3ccccc3)cc(C)cc12	5.99
O=C(Nc1ccc(-c2nc3ccccc3[nH]2)cc1)C1CCN(Cc2ccc(F)cc2)CC1	6.08
COc1ccc(Nc2ncc3c(-c4cccc(NC(=O)Cc5cccnc5)c4)c[nH]c3n2)cc1OC	6.14
O=S(=O)(Nc1ccc(CCN2CCC(N3CCCCC3)CC2)cc1)c1ccccc1C(F)(F)F	5.99
COc1ccc2c(OC)ccc(CNCCCCCCNCc3ccc(OC)c4ccc(OC)cc34)c2c1	6.40
COCCCNc1sc(S(=O)(=O)c2ccccc2)nc1S(=O)(=O)c1ccc(Cl)cc1	6.06
COc1ccc(C2c3cc(OC)c(OC)cc3C(=NO)C2C)cc1OC (configuration not stated)	5.93
NC(=O)C1CCN(Cc2cccc(-c3ccc(-c4nc5ccc(C(F)(F)F)cc5[nH]4)cc3)c2)CC1	6.21
Cc1ccccc1CNCC(O)c1cccc(C(F)(F)F)c1 (configuration not stated)	6.06
Cc1cc(NC(=O)c2cccs2)ccc1OC1CCN(Cc2ccc(C#N)cc2)C1 (configuration not stated)	6.07
COc1ccc(NC(=O)[C@H](Cc2ccccc2)Nc2cc(C)nc(NCCN3CCCC3)n2)cc1	5.86
O=C(COc1ccccc1Cc1ccccc1)Nc1cc(Cl)ccc1-n1cncn1	6.19
CC(C)(C)c1ccc(CN(C[C@@H](O)CNS(=O)(=O)c2cc(Cl)cc(Cl)c2)C(C)(C)C)cc1	6.03
COc1ccc2ncc(F)c(C(O)CN3CCC(NCc4ccc5c(n4)NC(=O)CO5)CC3)c2c1 (configuration not stated)	5.95 and 6.43
CC(C)c1cccc(C(NC(=O)[C@H]2Cc3ccccc3CN2C(=O)c2cccc(N3CCOCC3)c2)C2CCCC2)c1 (some centres not stated)	6.14
CCN(CC)CCNc1ccnc2[nH]c3ccc(I)cc3c12	6.64
O=C(Nc1cccc(Cl)c1Cl)N1CCc2cc3nccc(N4CCN5CCC[C@H]5C4)c3cc21	5.98
CCN(CC)CCN(Cc1ccc(-c2ccc(Cl)cc2)cc1)C(=O)Cn1cc(CN(C)C)c(=O)nc1SCc1ccc(F)cc1	6.12
Cc1ccc(Oc2ccccc2NC(=O)CCc2nc3ccccc3c(=O)[nH]2)cc1	6.08
CN1CCN(CC(=O)Nc2cccc(-c3cccc(-c4nc5ccccc5[nH]4)c3)c2)CC1	5.89

— PubChem BioAssay AID2305 (GlaxoSmithKline (GSK), 2010)
